Measurements from US20030157088A1, “Compositions containing enzymes stabilized with inhibitors having certain binding properties and methods for using such compositions in personal care” (The Proctor & Gamble Company, priority 2001, published 2003).

Each molecule was assayed against subtilisin. Conditions: approximate values; Ki=[E]*[I]/[EI]; read-out: inhibition constant (Ki).
Format: biochemical
Excerpt: Typically a safe and effective amount will range from 0.00005% to 5%, preferably from 0.005% to 2%, more preferably from 0.025% to 1%. Ki values reported herein are approximate values and may be measured, e.g. using the method set forth in “Kinetcs of Subtilisin and Thiolsubtilisin“, Philipp, M. and Bender, M. L., Molecular & Cellular Biochemistry, vol. 51, pages 5-32 (1983). Another suitable method is set forth in “Protease Stabilization by Carboxylic Acid Salts: Relative Efficencies and Mechanisms,” Crossin, Michael C., J.A.O.C.S. vol. 66, no. 7, pages 1010-1014 (July 1989). […] The inhibition constant (Ki) is defined as the concentration of inhibitor required to inhibit an enzyme's activity by 50%, and may be represented as Ki=[E]*[I]/[EI], wherein E is enzyme, I is inhibitor, and EI is enzyme-inhibitor complex.

Row | Molecule | Ki [µM]
1 | OB(O)O [boric acid] | > 1000
2 | Streptomyces subtilisin inhibitor [Streptomyces subtilisin inhibitor (SSI)] | < 0.001
3 | CCCCB(O)O [butylboronic acid] | 7200
4 | OB(O)c1ccccc1 [phenylboronic acid] | 160
5 | CC(=O)N[C@@H](CC(C)C)C(=O)N[C@@H](CC(C)C)C(=O)N[C@H](C=O)CCCNC(=N)N [leupeptide] | 230

The molecules below were run on skin. Conditions: in vivo.

Row | Molecule | irritation of the skin
6 | CCCCCCCCCCO[C@@H]1O[C@H](CO)[C@@H](O)[C@H](O)[C@H]1O [Decyl glucoside, decyl glucoside] | not increase irritation of the skin
